From US20240025875A1, “A COMPOUND AS A THYROID HORMONE BETA RECEPTOR AGONIST AND USE THEREOF” (SUNSHINE LAKE PHARMA CO., LTD., priority 2020, published 2024)

Experiments:
[1] = Pharmacokinetic determination in SD rats (i.v. and i.g.); assay type: in vivo; settings: for AUC(0-inf) / AUC(0-t) / Cmax / clearance / half-life / Vd: male, Sprague-Dawley (SD), rat, plasma; for Vd: read-out: VSS
Text: Test purposes: The following method was used to determine the pharmacokinetics of the compound of the present invention.
Test Materials: • Experimental reagents and test samples used: Propranolol (internal standard), methanol, ammonium acetate, K2EDTA (potassium ethylenediaminetetraacetic acid), formic acid, acetonitrile MTBE (methyl tert-butyl ether). KolliphorHS15 (macrogol 12 hydroxystearate), DMSO (dimethyl sulfoxide) are commercially available • SD rats: male, 180-220 g, 7-8 weeks old, purchased from Human Slack Experimental Animal Co., Ltd.
Each test sample prepared was completely dissolved in a mixture of 5% DMSO+5% KolliphorHS 15+90% Saline according solubility property thereof.
Samples were processed by liquid-liquid extraction, chromatographically separated, quantitatively analyzed by multiple reaction ion monitoring (MRM) on a triple quadrupole tandem mass spectrometer, and the concentration of the results was calculated by instrument quantitative software.
30 μL of plasma sample was precisely pipetted, added with 250 μL of internal standard, and vortexed to mix thoroughly. Plasma samples was extracted once with 1 mL of MTBE, centrifuged at 13,000 rpm for 2 min at 4° C. 800 μL of the supernatant was sucked out, evaporated to dryness in a 96-well nitrogen blower, and the residue was reconstituted with 150 μL of methanol/water (v/v=50/50), vortexed to mix, and injected with an injection volume of 8 μL.
LC/MS/MS method was used to determine the content of the test compound in rat plasma after administration of different compounds.
Pharmacokinetic parameters were calculated using a noncompartmental method by WinNonLin 6.1 software.

[2] = molecular target: T1, TRβ (Homo sapiens, UniProt P10828); assay: LanthaScreen TR-FRET Thyroid Receptor beta Coactivator Assay (in vitro binding activity); settings: TR beta-LBD
T1 construct: 5 μL of 4×TR beta/alfa-LBD; purchased Invitrogen PV4686
T1 sequence (P10828 217-461 limits assumed): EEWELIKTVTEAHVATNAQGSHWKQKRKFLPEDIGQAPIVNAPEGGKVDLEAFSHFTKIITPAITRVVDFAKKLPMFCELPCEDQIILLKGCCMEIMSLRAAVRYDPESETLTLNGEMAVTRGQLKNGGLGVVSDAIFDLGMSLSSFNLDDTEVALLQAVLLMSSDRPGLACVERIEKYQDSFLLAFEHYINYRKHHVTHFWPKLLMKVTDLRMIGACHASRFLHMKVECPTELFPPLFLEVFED
Method in brief: (§1)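 TR-FRET coactivator recruitment used GST-tagged TRα or TRβ ligand-binding domain with fluorescein-SRC2-2 peptide and Tb anti-GST antibody (0.4 μM and 8 nM in the added mix). Compound was run as 10-point 3-fold dilutions (2% DMSO solution) for 1 h at room temperature in the dark. EC50 came from the 520/495 nm emission ratio.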

[3] = molecular target: T2, TRα (Homo sapiens, UniProt P10827); assay: LanthaScreen TR-FRET Thyroid Receptor alfa Coactivator Assay (in vitro binding activity); settings: TR alfa-LBD
T2 construct: 5 μL of 4×TR beta/alfa-LBD; purchased Invitrogen PV4687
Method in brief: as §1

T2 sequence (P10827 163-410 isoform P10827-2 limits assumed, other chains not shown): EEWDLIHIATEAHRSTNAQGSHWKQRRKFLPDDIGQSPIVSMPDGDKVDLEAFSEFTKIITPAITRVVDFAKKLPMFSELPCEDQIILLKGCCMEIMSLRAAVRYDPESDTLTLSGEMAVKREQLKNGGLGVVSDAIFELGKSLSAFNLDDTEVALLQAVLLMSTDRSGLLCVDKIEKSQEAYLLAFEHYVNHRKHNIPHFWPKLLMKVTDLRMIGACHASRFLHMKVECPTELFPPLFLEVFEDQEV

SMILES	F ([1]; ig, 5 mg/kg)	AUC(0-inf) ([1]; iv, 1 mg/kg)	AUC(0-t) ([1]; iv, 1 mg/kg)	Cmax ([1]; iv, 1 mg/kg)	clearance ([1]; iv, 1 mg/kg)	half-life ([1]; iv, 1 mg/kg)	Vd ([1]; iv, 1 mg/kg)	AUC(0-inf) ([1]; po, ig, 5 mg/kg)	AUC(0-t) ([1]; po, ig, 5 mg/kg)	Cmax ([1]; po, ig, 5 mg/kg)	half-life ([1]; po, ig, 5 mg/kg)	EC50 [2]	EC50 [3]
O=C1c2ccc(Oc3c(Cl)cc(-n4ncc(=O)[nH]c4=O)cc3Cl)cc2CCN1Cc1ccc(C(F)(F)F)cc1 [Example 29, 2-(3,5-dichloro-4-((1-oxo-2-(4-(trifluoromethyl)benzyl)-1,2,3,4-tetrahydroisoquinolin-6-yl)oxy)phenyl)-1,2,4-triazine-3,5(2H,4H)-dione]	66.2%	56000 ng·h/mL	48700 ng·h/mL	4270 ng/mL	0.297 mL/min/kg	8.47 h	0.194 L/kg	236000 ng·h/mL	159000 ng·h/mL	10300 ng/mL	14.1 h	0.091 µM	> 100 µM
O=C1c2ccc(Oc3c(Cl)cc(-n4ncc(=O)[nH]c4=O)cc3Cl)cc2CCN1Cc1ccccn1 [Example 46, 2-(3,5-dichloro-4-((1-oxo-2-(pyridin-2-ylmethyl)-1,2,3,4-tetrahydroisoquinolin-6-yl)oxy)phenyl)-1,2,4-triazine-3,5(2H,4H)-dione]	126.5%	10000 ng·h/mL	9810 ng·h/mL	4160 ng/mL	1.66 mL/min/kg	4.24 h	0.424 L/kg	633000 ng·h/mL	61900 ng·h/mL	6410 ng/mL	5.93 h	0.035 µM	> 100 µM
O=C1c2ccc(Oc3c(Cl)cc(-n4ncc(=O)[nH]c4=O)cc3Cl)cc2CCN1c1cccnc1 [Example 49, 2-(3,5-dichloro-4-((1-oxo-2-(pyridin-3-yl)-1,2,3,4-tetrahydroisoquinolin-6-yl)oxy)phenyl)-1,2,4-triazine-3,5(2H,4H)-dione]	138.3%	3730 ng·h/mL	3580 ng·h/mL	5300 ng/mL	4.46 mL/min/kg	1.14 h	0.306 L/kg	25800 ng·h/mL	25300 ng·h/mL	9680 ng/mL	3.63 h	0.107 µM	> 100 µM
O=C1c2ccc(Oc3c(Cl)cc(-n4ncc(=O)[nH]c4=O)cc3Cl)cc2CCN1Cc1ccc(Cl)cc1 [Example 37, 2-(3,5-dichloro-4-((2-(4-chlorobenzyl)-1-oxo-1,2,3,4-tetrahydroisoquinolin-6-yl)oxy)phenyl)-1,2,4-triazine-3,5(2H,4H)-dione]	116.3%	21100 ng·h/mL	20900 ng·h/mL	4200 ng/mL	0.789 mL/min/kg	3.61 h	0.212 L/kg	122000 ng·h/mL	121000 ng·h/mL	12300 ng/mL	3.5 h	0.043 µM	> 100 µM
O=C1c2ccc(Oc3c(Cl)cc(-n4ncc(=O)[nH]c4=O)cc3Cl)cc2CCN1c1ccccc1F [Example 44, 2-(3,5-dichloro-4-((2-(2-fluorophenyl)-1-oxo-1,2,3,4-tetrahydroisoquinolin-6-yl)oxy)phenyl)-1,2,4-triazine-3,5(2H,4H)-dione]	133.3%	2150 ng·h/mL	2110 ng·h/mL	5430 ng/mL	7.74 mL/min/kg	2.11 h	0.4 L/kg	14300 ng·h/mL	13900 ng·h/mL	9030 ng/mL	1.64 h	0.0097 µM	> 100 µM
O=C1c2ccc(Oc3c(Cl)cc(-n4ncc(=O)[nH]c4=O)cc3Cl)cc2CCN1Cc1ccc(F)cc1 [Example 20, 2-(3,5-dichloro-4-((2-(4-fluorobenzyl)-1-oxo-1,2,3,4-tetrahydroisoquinolin-6-yl)oxy)phenyl)-1,2,4-triazine-3,5(2H,4H)-dione]	115.1%	16400 ng·h/mL	16300 ng·h/mL	3990 ng/mL	1.01 mL/min/kg	3.16 h	0.251 L/kg	94400 ng·h/mL	93700 ng·h/mL	10400 ng/mL	3.57 h	0.012 µM	> 100 µM
